Reference: PubChem BioAssay AID248 (DTP/NCI, 2004)
Inconclusive results and toxic doses are left out. No stated cut-off is given here; in the data, active means T/C of 150% or more; inactive means T/C below 125%.

Tested on: L1210 leukemia ip in BDF1 mice, survival T/C
Assay: NCI In Vivo Anticancer Drug Screen. Data for tumor model L1210 Leukemia (intraperitoneal) in B6D2F1 (BDF1) mice
Settings: endpoint: mean survival time, higher = longer survival
Summary of the method: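 Mice bearing the transplanted tumor received compound or vehicle. Survival of the treated group was divided by that of the vehicle-treated control group to give the ratio.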

[1] = dose: 25.0 mg/kg/injection, schedule: Q01DX009 (ip), vehicle: saline
[2] = dose: 50.0 mg/kg/injection, schedule: Q01DX009 (ip), vehicle: saline
[3] = dose: 100.0 mg/kg/injection, schedule: Q01DX001 (ip), vehicle: saline
[4] = dose: 100.0 mg/kg/injection, schedule: Q01DX009 (ip), vehicle: saline
[5] = dose: 200.0 mg/kg/injection, schedule: Q01DX001 (ip), vehicle: saline
[6] = dose: 400.0 mg/kg/injection, schedule: Q01DX001 (ip), vehicle: saline
[7] = dose: 100.0 mg/kg/injection, schedule: Q01DX009 (ip), vehicle: Klucel (hydroxypropylcellulose) (HPC)
[8] = dose: 100.0 mg/kg/injection, schedule: Q04DX003 (ip), vehicle: Klucel (hydroxypropylcellulose) (HPC)
[9] = dose: 200.0 mg/kg/injection, schedule: Q01DX009 (ip), vehicle: Klucel (hydroxypropylcellulose) (HPC)
[10] = dose: 200.0 mg/kg/injection, schedule: Q04DX003 (ip), vehicle: Klucel (hydroxypropylcellulose) (HPC)
[11] = dose: 400.0 mg/kg/injection, schedule: Q01DX009 (ip), vehicle: Klucel (hydroxypropylcellulose) (HPC)
[12] = dose: 400.0 mg/kg/injection, schedule: Q04DX003 (ip), vehicle: Klucel (hydroxypropylcellulose) (HPC)
[13] = dose: 100.0 mg/kg/injection, schedule: Q04DX003 (ip), vehicle: saline with Tween-80
[14] = dose: 50.0 mg/kg/injection, schedule: Q01DX009 (ip), vehicle: Klucel (hydroxypropylcellulose) (HPC)
[15] = dose: 200.0 mg/kg/injection, schedule: Q04DX003 (ip), vehicle: saline with Tween-80
[16] = dose: 400.0 mg/kg/injection, schedule: Q04DX003 (ip), vehicle: saline with Tween-80

Measured: T/C

Nc1nc(=S)c2ncn(C3OCC(O)C(O)C3O)c2[nH]1 (stereo not given)
inactive: dose: 5.0 mg/kg/injection, schedule: Q01DX001 (ip), vehicle: saline 101 % of control | dose: 10.0 mg/kg/injection, schedule: Q01DX001 (ip), vehicle: saline 95 % of control | dose: 12.5 mg/kg/injection, schedule: Q01DX009 (ip), vehicle: saline 98 % of control | dose: 20.0 mg/kg/injection, schedule: Q01DX001 (ip), vehicle: saline 96 % of control | [1] 97 % of control | dose: 40.0 mg/kg/injection, schedule: Q01DX001 (ip), vehicle: saline 101 % of control | [2] 98 % of control | dose: 80.0 mg/kg/injection, schedule: Q01DX001 (ip), vehicle: saline 96 % of control | [3] 98 % of control | [4] 101 % of control | [5] 102 % of control | [6] 102 % of control

CCCCC(CC)C(O)C(C)C(C)O (stereo not given)
inactive: [7] 97 % of control | [8] 101 % of control | [9] 102 % of control | [10] 98 % of control | [11] 100 % of control | [12] 95 % of control

Cc1ccc(/C=N/NC(=O)c2ccc(N=NN(C)C)cc2)cc1
inactive: dose: 50.0 mg/kg/injection, schedule: Q04DX003 (ip), vehicle: Klucel (hydroxypropylcellulose) (HPC) 95 % of control | [8] 99 % of control | [10] 100 % of control

O=S(=O)(OCC(F)(F)F)c1ccccc1
inactive: [7] 103 % of control | [8] 97 % of control | [9] 101 % of control | [10] 102 % of control | [12] 103 % of control

O=C(CCl)NCCCNC(=O)CCl
inactive: dose: 6.25 mg/kg/injection, schedule: Q01DX009 (ip), vehicle: other 94 % of control | dose: 12.5 mg/kg/injection, schedule: Q01DX009 (ip), vehicle: other 94 % of control | dose: 25.0 mg/kg/injection, schedule: Q01DX009 (ip), vehicle: other 94 % of control | dose: 25.0 mg/kg/injection, schedule: Q04DX003 (ip), vehicle: saline with Tween-80 98 % of control | dose: 50.0 mg/kg/injection, schedule: Q04DX003 (ip), vehicle: saline with Tween-80 102 % of control | [13] 111 % of control

N=C(N)S/C=C(/F)C(F)(F)CBr
inactive: dose: 50.0 mg/kg/injection, schedule: Q01DX001 (ip), vehicle: saline 95 % of control | [3] 101 % of control | [5] 113 % of control | [6] 101 % of control

O=C1CCCCCCCCCCCCCC1
inactive: dose: 100.0 mg/kg/injection, schedule: Q04DX002 (ip), vehicle: Klucel (hydroxypropylcellulose) (HPC) 102 % of control | dose: 200.0 mg/kg/injection, schedule: Q04DX002 (ip), vehicle: Klucel (hydroxypropylcellulose) (HPC) 102 % of control | dose: 400.0 mg/kg/injection, schedule: Q04DX002 (ip), vehicle: Klucel (hydroxypropylcellulose) (HPC) 102 % of control

O=C(NCc1ccccc1)NCc1ccccc1
inactive: dose: 100.0 mg/kg/injection, schedule: Q01DX001 (ip), vehicle: Klucel (hydroxypropylcellulose) (HPC) 112 % of control | dose: 200.0 mg/kg/injection, schedule: Q01DX001 (ip), vehicle: Klucel (hydroxypropylcellulose) (HPC) 97 % of control | dose: 400.0 mg/kg/injection, schedule: Q01DX001 (ip), vehicle: Klucel (hydroxypropylcellulose) (HPC) 105 % of control

Cc1cccc(NC(=O)NCC(=O)NNC(=O)Nc2cc([N+](=O)[O-])ccc2C)n1
inactive: [14] 100 % of control | [7] 89 % of control | [9] 88 % of control

Cc1ccc(NC(=O)Nc2cccc(Cl)c2)cc1C
inactive: [7] 96 % of control | [8] 90 % of control | [9] 98 % of control | [10] 92 % of control | [11] 95 % of control | [12] 92 % of control

CCCCCCCC[N+](C)(CCCCCCCC)CCCCCCCC
inactive: dose: 0.04 mg/kg/injection, schedule: Q01DX009 (ip), vehicle: saline 86 % of control | dose: 0.09 mg/kg/injection, schedule: Q01DX009 (ip), vehicle: saline 100 % of control | dose: 0.19 mg/kg/injection, schedule: Q01DX009 (ip), vehicle: saline 101 % of control | dose: 0.19 mg/kg/injection, schedule: Q04DX003 (ip), vehicle: acetone 112 % of control | dose: 0.28 mg/kg/injection, schedule: Q01DX009 (ip), vehicle: saline with Tween-80 114 % of control | dose: 0.39 mg/kg/injection, schedule: Q01DX001 (ip), vehicle: saline with Tween-80 105 % of control | dose: 0.43 mg/kg/injection, schedule: Q01DX009 (ip), vehicle: saline with Tween-80 116 % of control | dose: 0.5 mg/kg/injection, schedule: Q01DX015 (ip), vehicle: saline 97 % of control | dose: 0.64 mg/kg/injection, schedule: Q01DX009 (ip), vehicle: saline with Tween-80 118 % of control | dose: 0.78 mg/kg/injection, schedule: Q01DX001 (ip), vehicle: saline with Tween-80 90 % of control | dose: 1.0 mg/kg/injection, schedule: Q01DX015 (ip), vehicle: saline 95 % of control | dose: 1.56 mg/kg/injection, schedule: Q01DX001 (ip), vehicle: saline with Tween-80 114 % of control

CC(C)=CCC(CCN(C)C)(C(N)=O)c1ccc2ccccc2c1 (stereo not given)
inactive: dose: 12.5 mg/kg/injection, schedule: Q01DX009 (ip), vehicle: Klucel (hydroxypropylcellulose) (HPC) 93 % of control | dose: 25.0 mg/kg/injection, schedule: Q01DX009 (ip), vehicle: Klucel (hydroxypropylcellulose) (HPC) 86 % of control | [14] 91 % of control

O=[N+]([O-])OCc1c(Cl)nc(Cl)c(Cl)c1Cl
inactive: dose: 20.0 mg/kg/injection, schedule: Q01DX009 (ip), vehicle: Klucel (hydroxypropylcellulose) (HPC) 103 % of control | dose: 40.0 mg/kg/injection, schedule: Q01DX009 (ip), vehicle: Klucel (hydroxypropylcellulose) (HPC) 92 % of control | [8] 92 % of control | [10] 100 % of control

Cc1ccc(C)c(/C(=N\N=C(N)N)C2CC2)c1
inactive: dose: 15.0 mg/kg/injection, schedule: Q01DX Z (ip), vehicle: methylcellulose (MC) 103 % of control | dose: 30.0 mg/kg/injection, schedule: Q01DX Z (ip), vehicle: methylcellulose (MC) 99 % of control | dose: 30.0 mg/kg/injection, schedule: Q01DX Z (oral), vehicle: methylcellulose (MC) 103 % of control | dose: 60.0 mg/kg/injection, schedule: Q01DX Z (ip), vehicle: methylcellulose (MC) 100 % of control | dose: 60.0 mg/kg/injection, schedule: Q01DX Z (oral), vehicle: methylcellulose (MC) 94 % of control | dose: 120.0 mg/kg/injection, schedule: Q01DX Z (oral), vehicle: methylcellulose (MC) 100 % of control

Cc1ccc(C2OC2(C(=O)c2ccccc2)c2ccccc2)cc1 (stereo not given)
inactive: [7] 106 % of control | [8] 96 % of control | [9] 108 % of control | [10] 104 % of control | [11] 92 % of control | [12] 98 % of control

CCCCCC(C)O[Si](C)C1(C)CCCCC1 (stereo not given)
inactive: [13] 94 % of control | [15] 94 % of control | [16] 104 % of control

CN(C)S(=O)(=O)c1ccc2c(c1)N(CCCN1CCN(S(C)(=O)=O)CC1)c1ccccc1S2
inactive: [1] 95 % of control | [2] 101 % of control | [4] 91 % of control | dose: 200.0 mg/kg/injection, schedule: Q01DX009 (ip), vehicle: saline 98 % of control | dose: 400.0 mg/kg/injection, schedule: Q01DX009 (ip), vehicle: saline 106 % of control

CC(=O)OCC(OC(C)=O)C(OC1OC(COC(C)=O)C(OC(C)=O)C(OC(C)=O)C1OC(C)=O)C(OC(C)=O)C(C=O)OC(C)=O (stereo not given)
inactive: [14] 96 % of control | [7] 89 % of control | dose: 100.0 mg/kg/injection, schedule: Q01DX009 (ip), vehicle: saline with Tween-80 102 % of control | [13] 102 % of control | [9] 89 % of control | dose: 200.0 mg/kg/injection, schedule: Q01DX009 (ip), vehicle: saline with Tween-80 102 % of control | [15] 105 % of control | dose: 400.0 mg/kg/injection, schedule: Q01DX009 (ip), vehicle: saline with Tween-80 102 % of control | [16] 94 % of control

CCCCOP(=O)(NC12CC3CC(CC(C3)C1)C2)OCCCC
inactive: [7] 97 % of control | [8] 100 % of control | [9] 97 % of control | [10] 92 % of control | [11] 100 % of control | [12] 96 % of control
